From ChEMBL document CHEMBL1134285, “Novel agouti-related-protein-based melanocortin-1 receptor antagonist” (J Med Chem, 2001)
Positions of bridges follow the written chain, without caps; N, C: chain ends. Residues, ends and D or L forms follow the SMILES beside them.

Target: Melanocortin receptor 4 (Mus musculus, UniProt P56450)
Experiment: Antagonist activity against mouse melanocortin-4 receptor (MC4R) using Schild analysis
Format: functional
Conditions: for Kb: read-out: pA2 (converted)

Chain of Melanocortin receptor 4 (P56450 whole entry): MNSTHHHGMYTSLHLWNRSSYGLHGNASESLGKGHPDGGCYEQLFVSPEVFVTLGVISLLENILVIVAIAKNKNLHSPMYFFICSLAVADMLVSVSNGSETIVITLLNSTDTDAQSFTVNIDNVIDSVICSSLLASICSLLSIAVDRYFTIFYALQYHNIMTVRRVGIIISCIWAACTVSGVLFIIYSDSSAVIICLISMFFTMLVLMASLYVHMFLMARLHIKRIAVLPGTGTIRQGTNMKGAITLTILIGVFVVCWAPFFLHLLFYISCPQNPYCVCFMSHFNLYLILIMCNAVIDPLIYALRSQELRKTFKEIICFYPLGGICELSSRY

pA2	SMILES	Kb
	C[C@@H]1NC(=O)[C@H](CC(N)=O)NC(=O)[C@H](Cc2ccccc2)NC(=O)[C@H](Cc2ccccc2)NC(=O)[C@H](CCCNC(=N)N)NC(=O)[C@@H](NC(=O)[C@@H](N)Cc2ccc(O)cc2)CC(=O)NC[C@@H](C(=O)N[C@@H](Cc2ccc(O)cc2)C(N)=O)NC(=O)[C@H](Cc2ccccc2)NC1=O	479 nM
6.98	C[C@@H]1NC(=O)[C@H](CC(N)=O)NC(=O)[C@H](Cc2ccccc2)NC(=O)[C@H](Cc2ccccc2)NC(=O)[C@H](CCCN=C(N)N)NC(=O)CC[C@H](NC(=O)[C@@H](N)Cc2ccc(O)cc2)C(=O)NC[C@@H](C(=O)N[C@@H](Cc2ccc(O)cc2)C(N)=O)NC(=O)[C@H](Cc2ccccc2)NC1=O	
	C[C@@H]1NC(=O)[C@H](CC(N)=O)NC(=O)[C@H](Cc2ccccc2)NC(=O)[C@H](Cc2ccccc2)NC(=O)[C@H](CCCNC(=N)N)NC(=O)[C@@H](NC(=O)[C@@H](N)Cc2ccc(O)cc2)CSSC[C@@H](C(=O)N[C@@H](Cc2ccc(O)cc2)C(N)=O)NC(=O)[C@H](Cc2ccccc2)NC1=O (H-YCRFFNAFCY-NH2; disulfide 2-9)	155 nM
